Patent US20060084684A1, “Topically applicable pharmaceutical preparation” (Altana Pharma AG, priority 2002, published 2006)
Converted amounts (≈) assume the structure as drawn.

Experiments:
Solubility in water = format: physicochemical; conditions: at 21° C.
Text: For treating disorders of the skin it Is desirable to provide the active pharmaceutical ingredient in a pharmaceutical preparation suitable for topical application.

[1] = Kinetic parameters after oral administration (comparison); format: in vivo, rat
Method: Comparison with kinetic parameters after oral administration of 1 mg/kg: […]

solubility (Solubility in water): 0.53 µg/mL (≈ 1.31 µM)
excretion with the urine ([1]; oral administration): 18.4 % of the dose
AUC(0-24 h) ([1]; oral administration of 1 mg/kg): 3.10 mg equiv./l×h
Cmax ([1]; oral administration of 1 mg/kg): 0.225 mg equiv./l
SMILES: O=C(Nc1c(Cl)cncc1Cl)c1ccc(OC(F)F)c(OCC2CC2)c1 [roflumilast, N-(3,5-dichloropyrid-4-yl)-3-cyclopropylmethoxy-4-difluoromethoxybenzamide]
